The values that follow come from ChEMBL document CHEMBL1156718, “Synthesis of novel aminoquinonoid analogues of diospyrin and evaluation of their inhibitory activity against murine and human cancer cells” (Eur J Med Chem, 2008).

Data set [1] relates to Mus musculus. The data set can be described thus: Effect on alkaline phosphatase activity in Swiss A mouse xenografted with mouse Ehrlich ascites carcinoma cells assessed as umole of PNPP hydrolysed per minute per decilitre of serum at 1 mg/kg, ip administered five doses in alternate days measured after 16 days relative to control. Type of data set: functional. Further details: unit: umol/min/dL. As to conditions: route intraperitoneal.

Data set [2] relates to Mus musculus. Briefly: Effect on serum LDH activity in Swiss A mouse xenografted with mouse Ehrlich ascites carcinoma cells assessed as LDH unit at 1 mg/kg, ip administered five doses in alternate days measured after 16 days relative to control. Type of data set: functional. On the set-up: unit not given here. The note with it: route intraperitoneal.
The next data set concerns HL-60. Briefly: Cytotoxicity against human HL60 cells by MTT assay. Type of data set: functional, cell-based.
In data set [3] the test system is Ehrlich. The data set can be described thus: Antitumor activity against mouse Ehrlich ascites carcinoma cells xenografted in Swiss A mouse assessed as inhibition of tumor growth at 1 mg/kg, ip administered five doses in alternate days measured after 16 days. Type of data set: functional. On the set-up: unit not given here. The note with it: route intraperitoneal.

The next data set concerns A-431. Briefly: Cytotoxicity against human A431 cells by MTT assay. Type of data set: functional, cell-based.
The next data set has as its system MCF7. The data set can be described thus: Cytotoxicity against human MCF7 cells by MTT assay. Type of data set: functional, cell-based.
The subject of data set [4] is Ehrlich. The data set can be described thus: Antitumor activity against mouse Ehrlich ascites carcinoma cells xenografted in Swiss A mouse assessed as increase in life span at 1 mg/kg, ip administered five doses in alternate days relative to control. Type of data set: functional. As to conditions: route intraperitoneal.
In the next data set the test system is K562. Briefly: Cytotoxicity against human K562 cells by MTT assay. Type of data set: functional, cell-based.
Data set [5] relates to Ehrlich. Briefly: Antitumor activity against mouse Ehrlich ascites carcinoma cells xenografted in Swiss A mouse assessed as increase in survival time at 1 mg/kg, ip administered five doses in alternate days. As to conditions: route intraperitoneal. Type of data set: functional. Further details: unit not given here.
The nature of data set [6]: Toxicity in single ip dosed Swiss A mouse. Type of data set: organism-based. As to conditions: in vivo.
In data set [7] the test system is Ehrlich. The data set can be described thus: Cytotoxicity against mouse Ehrlich ascites carcinoma cells after 24 hrs by MTT assay. Type of data set: functional, cell-based.
Data set [8] relates to Ehrlich. The data set can be described thus: Induction of apoptosis in mouse Ehrlich ascites carcinoma cells assessed as intracellular ROS generation at 0.4 uM after 1 hr by measuring increase in fluorescent intensity relative to control in presence of N-acetyl L-cysteine. Type of data set: functional, cell-based.
Data set [9] deals with Ehrlich. The data set can be described thus: Antitumor activity against mouse Ehrlich ascites carcinoma cells xenografted in Swiss A mouse assessed as restoration of lymphocyte infiltration and sinusoid dilation at 1 mg/kg, ip administered five doses in alternate days measured after 16 days by histopathological study relative to untreated control. Type of data set: functional, organism-based. Further details: dose 1 mg/kg.

The test system of data set [10] is Ehrlich. The data set can be described thus: Induction of apoptosis in mouse Ehrlich ascites carcinoma cells assessed as intracellular ROS generation at 0.4 uM after 1 hr by measuring increase in fluorescent intensity relative to control. Type of data set: functional.
The subject of data set [11] is PBMC. The data set can be described thus: Cytotoxicity against human PBMC cells after 24 hrs by MTT assay. Type of data set: cell-based.
Data set [12] concerns PBMC. Briefly: Selectivity ratio of IC50 for mouse Ehrlich ascites carcinoma to IC50 for human PBMC cells.
For the next data set, the system named is A-375. Briefly: Cytotoxicity against human A375 cells after 24 hrs by MTT assay. Type of data set: functional, cell-based. As to conditions: A-375, 24 h.
Data set [13] concerns PBMC. The data set can be described thus: Selectivity ratio of IC50 for human A375 cells to IC50 for human PBMC cells.
Data set [14] has as its system Mus musculus. Briefly: Toxicity in Swiss A mouse xenografted with mouse Ehrlich ascites carcinoma cells assessed as food and water intake at 1 mg/kg, ip administered five doses in alternate days measured after 16 days. Further details: dose 1 mg/kg, route intraperitoneal. Type of data set: organism-based. The note with it: in vivo, 384 h.
Data set [15] has as its system PBMC. Briefly: Selectivity ratio of IC50 for human Hep2 cells to IC50 for human PBMC cells.
For a further data set, the system named is HEp-2. The data set can be described thus: Cytotoxicity against human Hep2 cells after 24 hrs by MTT assay. Type of data set: functional, cell-based. As to conditions: HEp-2, 24 h.
Data set [16] deals with Ehrlich. The data set can be described thus: Induction of apoptosis in mouse Ehrlich ascites carcinoma cells assessed as intracellular ROS generation after 1 hr. Type of data set: functional, cell-based.

Active and inactive are the calls of the source. The calls are words filed in the database; no cut-off is given here.

Regarding `Cc1cc(O)c2c(c1)C(=O)C(c1c(C)cc3c(c1O)C(=O)C=CC3=O)=CC2=O` [DIOSPYRIN], the Activity in the data set with Mus musculus [1] turned out to be 3.7; with Mus musculus [2] it was 16.3; in the data set on Ehrlich [3] it was 4.3; with Ehrlich [4], 36%; with Ehrlich [5], 23.2. The half-maximal inhibitory concentration (IC50) in the data set on HL-60 was greater than 100 µM; with A-431, 65.3 µM; in the data set with MCF7, 74.8 µM; with K562, greater than 100 µM. This compound also displayed an LD50 in [6] of 25 mg/kg.
For the compound `COc1cc(C)cc2c1C(=O)C=C(c1c(C)cc3c(c1OC)C(=O)C(NC(C)=O)=CC3=O)C2=O`, the IC50 in the data set with Ehrlich [7] was found to be 0.06 µM; in the data set with PBMC [11], 86.5 µM; with A-375, 0.06 µM; in the data set with HEp-2 it was 0.92 µM. Besides, the outcome in the data set on Ehrlich [8] was inactive. Further, the Activity in the data set on Mus musculus [1] was 5.5; in the data set with Ehrlich [10] it was 9; with Mus musculus [2], 26.3; in the data set on Ehrlich [3], 3.3; in the data set with Ehrlich [4], 93%; with Mus musculus [14], “Non-toxic”. For the same compound, in the data set on Ehrlich [5], the Activity is 35.7. The result in the data set with Ehrlich [9] was Active. Also, the Selectivity ratio in the data set on PBMC [12], in the data set on PBMC [13] and in the data set on PBMC [15] was 100 each time. In addition, in data set [6], the 50% lethal dose (LD50) was greater than 60 mg/kg.
Consider `COc1cc(C)cc2c1C(=O)C=C(c1c(C)cc3c(c1OC)C(=O)C=CC3=O)C2=O`, for which the Activity is reported as 4.9 in the data set on Mus musculus [1]; 25.5 in the data set on Mus musculus [2]; 2.9 in the data set with Ehrlich [3]; 57% in the data set with Ehrlich [4]; 29.8 in the data set on Ehrlich [5]. The IC50 is 64.1 µM in the data set with HL-60, 28.2 µM in the data set with A-431, 46.4 µM with MCF7 and greater than 100 µM in the data set with K562. The compound further yielded an LD50 in data set [6] of 45 mg/kg.
For the compound `COc1cc(C)cc2c1C(=O)C(N)=C(c1c(C)cc3c(c1OC)C(=O)C(N)=CC3=O)C2=O`, the IC50 with Ehrlich [7] was 0.37 µM; in the data set on PBMC [11] it was 40.6 µM; in the data set on A-375, 1.93 µM; in the data set with HEp-2, 2.34 µM. Further, the Activity in the data set with Mus musculus [1] worked out at 4.9; in the data set on Mus musculus [2], 37.5; in the data set on Ehrlich [3], 3.9; in the data set with Ehrlich [4], 62%; in the data set on Ehrlich [5], 30.
Take `CCOC(=O)CNC1=CC(=O)c2cc(C)c(C3=CC(=O)c4c(OC)cc(C)cc4C3=O)c(OC)c2C1=O`: the IC50 in the data set with Ehrlich [7] amounted to 0.09 µM; with PBMC [11], 96.2 µM; in the data set on A-375, 0.57 µM; with HEp-2, 0.86 µM. Further, in the data set with Ehrlich [8], the result was inactive. Also, the Activity is listed as 5.9 in the data set on Mus musculus [1]; 9 in the data set on Ehrlich [10]; 24.6 in the data set on Mus musculus [2]; 2.3 in the data set with Ehrlich [3]; 81% in the data set on Ehrlich [4]; 34.9 in the data set with Ehrlich [5]. In addition, the Activity entry with Ehrlich [16] was “Dose-dependent effect”.
For the compound `COc1cc(C)cc2c1C(=O)C=C(c1c(C)cc3c(c1OC)C(=O)C(N)=CC3=O)C2=O`, the IC50 in the data set with Ehrlich [7] is 0.35 µM; in the data set with PBMC [11], greater than 100 µM; in the data set on A-375, 3.24 µM; in the data set on HEp-2 it was 3.51 µM. For the same compound, the Activity with Mus musculus [1] is 4.4; in the data set with Mus musculus [2] it was 34.7; with Ehrlich [3], 3.4; in the data set with Ehrlich [4], 72%; in the data set with Ehrlich [5] it was 31.5; with Ehrlich [16] it was “Dose-dependent effect”.
As to `COc1cc(C)cc2c1C(=O)C=C(c1c(C)cc3c(c1OC)C(=O)C(NCc1ccccc1)=CC3=O)C2=O`, the IC50 in the data set on Ehrlich [7] was 1.41 µM; in the data set with PBMC [11], greater than 100 µM; in the data set with A-375, 0.55 µM; in the data set on HEp-2 it was 2.61 µM. Further, the Activity is 3.1 in the data set with Mus musculus [1]; 31.8 in the data set on Mus musculus [2]; 3 with Ehrlich [3]; 47% in the data set with Ehrlich [4]; 28.4 with Ehrlich [5]; “Dose-dependent effect” with Ehrlich [16].
As for `COc1cc(C)cc2c1C(=O)C=C(c1c(C)cc3c(c1OC)C(=O)C(Nc1ccc(Cl)cc1)=CC3=O)C2=O`, the IC50 was found to be 0.25 µM in the data set on Ehrlich [7], 44.9 µM in the data set with PBMC [11], 0.63 µM in the data set with A-375 and 0.65 µM with HEp-2. For the same compound, the Activity was 6.4 with Mus musculus [1]; 25.5 with Mus musculus [2]; 2.7 in the data set on Ehrlich [3]; 69% in the data set on Ehrlich [4]; 34.3 in the data set on Ehrlich [5]; “Dose-dependent effect” with Ehrlich [16].
As to `COc1cc(C)cc2c1C(=O)C=C(c1c(C)cc3c(c1OC)C(=O)C(Nc1ccc4ccccc4c1)=CC3=O)C2=O`, the IC50 stood at 0.24 µM in the data set on Ehrlich [7], 73.8 µM in the data set with PBMC [11], 0.08 µM in the data set with A-375 and 2.04 µM in the data set with HEp-2. Also, the Activity with Mus musculus [1] was 5.4; with Mus musculus [2], 23.5; with Ehrlich [3], 2.9; with Ehrlich [4] it was 67%; with Ehrlich [5], 34; with Ehrlich [16] it was “Dose-dependent effect”.
As to `CCOc1cc(C)cc2c1C(=O)C=C(c1c(C)cc3c(c1OCC)C(=O)C=CC3=O)C2=O`, the IC50 is 30.1 µM in the data set on HL-60, 15.9 µM in the data set on A-431, 18.9 µM with MCF7 and 40.2 µM in the data set with K562.
